We go through one compound from patent US9637451B2, “Indole compound” (ASTELLAS PHARMA INC., priority 2014, dated 2017).

Series [1] is described as follows: CSF-to-plasma unbound concentration ratio in rat after intravenous administration. The series is classed as in vivo. Particulars: CSF and plasma (unbound), iv, 15 minutes after intravenous administration, fp by ultracentrifugation method. The protocol: A test compound (100 μg/mL, 50% acetonitrile solution) at 1% (v/v) with respect to the amount of the plasma was added to rat plasma, and dispensed to a sample for a supernatant and a sample for the plasma. The sample for a supernatant was ultracentrifuged at 436,000×g and 37° C. for 140 minutes, and the sample for the plasma was incubated at 37° C. for 140 minutes.
After 140 minutes, the sample for a supernatant after the ultracentrifugation and the sample for the plasma were taken, and mixed with the blank plasma or the blank supernatant, respectively. Acetonitrile including an internal standard material was added to each of the samples with the removal of protein, and after the centrifugation at 2150×g and 4° C. for 10 minutes the supernatant was injected into LC-MS/MS.
The unbound fraction in the plasma was calculated by the following equation.
To the plasma of a rat was added a test compound (0.2 mM, 50% acetonitrile solution) in an amount corresponding to 1% (v/v) of the plasma amount, and 200 μL of obtained plasma sample was filled into a plasma chamber of a RED device insert. A buffer chamber was filled with 350 μL of PBS, followed by performing equilibrium dialysis by stirring in a CO2 incubator at 37° C. for 16 hours. The sample after the completion of the equilibrium dialysis was recovered and the volume of the plasma sample was measured. To the plasma sample after the completion of the equilibrium dialysis were added PBS, a 20 mM ammonium formate buffer, and acetonitrile including an internal standard material. Similarly, to the PBS sample after the completion of the equilibrium dialysis was added a blank plasma, a 20 mM ammonium formate buffer, and acetonitrile including an internal standard material. This sample was left to stand at 4° C. for 30 minutes and then centrifuged 1500×g for 10 minutes, and the supernatant was measured by LC-MS/MS. The unbound fraction in the plasma was calculated by the following equation. fp=Cf/{(Cp−Cf)(V/V0)+Cf}
At 15 minutes after intravenously administration of the test compound to the rats, the plasma and CSF were collected. A 50% acetonitrile solution and an acetonitrile including internal standard material were added to the collected plasma or CSF. After centrifuging this sample at 4° C. and 2150×g for 10 minutes, the supernatant was measured by LC-MS/MS, and the total concentration of the test compound in the plasma (Cplasma,t) and the concentration of the test compound in CSF (CCSF) were obtained. The unbound concentration in the plasma (Cplasma,u) of the test compound and the CSF-to-plasma unbound concentration ratio (Kp,uu,CSF) of the test compound was calculated by the following equation.
(§1) The Kp,uu,CSF values and the Kp,brain values of ramelteon and some Example compounds of the present invention are shown in Table 4. Ex represents Example No. of the test compound. Unless otherwise specified, the Kp,uu,CSF was calculated using the fp values determined by an ultracentrifugation method. Further, N.T. represents Not Tested.
(Ramelteon represents the values of Kp,uu,CSF after 10 minutes after the intravenous administration. Further, the Kp,uu,CSF of Examples 37 and 38 was calculated using the fp values determined by an equilibrium dialysis method. In addition, N.D. denotes the concentration of the test compound in CSF that is no higher than the detection limit.)

Series [2] is described as follows: Brain-to-plasma concentration ratio in rat after intravenous administration. The series is classed as in vivo. Particulars: brain and plasma, 15 minutes after intravenous administration. On the procedure:
At 15 minutes after intravenously administration of the test compound to the rats, the plasma and brain were collected. A 50% acetonitrile solution and an acetonitrile including internal standard material were added to the collected plasma. The collected brain was added to a 2-fold volume of PBS and homogenized. A 50% acetonitrile solution and an acetonitrile including internal standard material were added to the brain homogenate. The sample was centrifuged at 4° C. and 2150×g for 10 minutes, the supernatant was measured by LC-MS/MS, and the total concentration of the test compound in the brain (Cbrain) and the total concentration of the test compound in the plasma (Cplasma,t) were obtained. The brain-to-plasma concentrations ratio (Kp,brain) was calculated by the following equation.
as §1

Regarding `CC(=O)NCCc1c[nH]c2cc(F)c(OCCOc3ccn(C)n3)cc12` [Example 6, N-[2-(6-fluoro-5-{2-[(1-methyl-1H-pyrazol-3-yl)oxy]ethoxy}-1H-indol-3-yl)ethyl]acetamide], in series [1], the Kp uu at 0.25 h was determined as 0.06. In addition, in series [2], the Kp (usually tissue or fluid exposure divided by exposure in the circulation) at 0.25 h amounted to 0.09.
